System: AAR^CAp
Settings: read-out: KM^AcAcCoA; NADH fixed at 300 µM; 50 mM Tris pH 8, 5 mM MgCl2, 5 mM NaCl; 30 °C

CC(=O)CC(=O)SCCNC(=O)CCNC(=O)[C@H](O)C(C)(C)COP(=O)(O)OP(=O)(O)OC[C@H]1O[C@@H](n2cnc3c(N)ncnc32)[C@H](O)[C@@H]1OP(=O)(O)O [acetoacetyl-CoA]
Km: 56.7 µM
